Measured values published in patent publication US20150315202A1, “CHLORIN DERIVATIVE USEFUL IN PHOTODYNAMIC THERAPY AND DIAGNOSIS” (RMW CHO GROUP LIMITED, priority 2012, published 2015).

Experiments:
[1] = Singlet oxygen detection by photosensitized oxygenation of DPIBF; format: physicochemical; settings: ethanol, red light 660 nm
From the text: The second method of singlet oxygen detection was based on photosensitized oxygenation of the singlet oxygen conjugate 1,3-diphenylisobenzofuran (DPIBF) (Acros Organics, United Kingdom). DPIBF chemically binds to two singlet oxygens (^1O2) (FIG. 3). This method was applied to chlorin e4 sodium solutions in ethanol. The major absorption band of DPIBF is located at 414-415 nm. The molar absorption coefficient in this maximum, εDPIBF, is known to be 23500 M^−1 cm^−1. Tested solutions were irradiated by the monochromatic light from a xenon lamp using the excitation system of the spectrofluorimeter Perkin-Elmer MPF-44B, the spectral width of the monochromator bandwidth corresponding to 5 nm. Radiant power was measured using the calibrated detector ThorLabs PM-100 (Germany). The singlet oxygen quantum yields (ΦΔ) were calculated according to the equation: […]

[2] = system: naso pharyngeal carcinoma with extension to a lymph node in the left neck; assay: In vivo studies Example 2: patient, oral chlorin e4 sodium plus laser and LED light; parameters: species or system human
Description: A patient with naso pharyngeal carcinoma with extension to a lymph node in the left neck, was treated successfully. The treatment consisted of three courses. For each course, five doses of 62.5-187.5 mg chlorin e4 sodium were administered orally over the course of eight days. 24-48 hours after each oral dose of chlorin e4 sodium, the patient was treated with laser and LED light having a wavelength of 660 nm and 760 nm.
Subsequently the patient was treated with a further course. Again, for the course, five doses of 62.5-187.5 mg chlorin e4 sodium were administered orally over the course of eight days. 24-48 hours after each oral dose of chlorin e4 sodium, the patient was treated with laser and LED light having a wavelength of 660 nm and 760 nm.

lung cancer = assay: In vivo studies Example 5: patient, oral chlorin e4 sodium plus laser and LED light; parameters: species or system human; settings: three months after one course
Description: A patient with lung cancer was treated successfully. The treatment consisted of one course of five doses of 62.5-187.5 mg chlorin e4 sodium administered orally over the course of eight days. 24-48 hours after each oral dose of chlorin e4 sodium, the patient was treated with laser and LED light having a wavelength of 660 nm and 760 nm.

[3] = system: naso pharyngeal carcinoma with metastases in the lymph nodes of the left neck and in the lung; assay: In vivo studies Example 10: patient, oral chlorin e4 sodium plus laser and LED light; parameters: species or system human
Description: A patient with naso pharyngeal carcinoma with metastases in the lymph nodes of the left neck and in the lung, was treated successfully. The treatment consisted of five courses. For each course, five doses of 62.5-187.5 mg chlorin e4 sodium were administered orally over the course of eight days. 24-48 hours after each oral dose of chlorin e4 sodium, the patient was treated with laser and LED light having a wavelength of 660 nm and 760 nm. Additionally an interstitial light treatment using a fine needle was performed on the left lung to a tumour that was large in size with an optical fibre laser having a wavelength of 660 nm and 760 nm.

[4] = system: lung cancer with metastases in the lymph nodes and sacrum bone; assay: In vivo studies Example 11: patient, oral chlorin e4 sodium plus laser and LED light; parameters: species or system human
Description: A patient with lung cancer with metastases in the lymph nodes and sacrum bone, was treated successfully. […] The treatment consisted of five courses. For each course, five doses of 62.5-187.5 mg chlorin e4 sodium were administered orally over the course of eight days. 24-48 hours after each oral dose of chlorin e4 sodium, the patient was treated with laser and LED light having a wavelength of 660 nm and 760 nm. Additionally, for two of the treatment courses, an interstitial light treatment using a fine needle was performed on the sacrum bone with an optical fibre laser having a wavelength of 660 nm and 760 nm. Additionally, mesothelium bone growth therapy was administered for the last two treatment courses.

S180 sarcoma = assay: Photodynamic therapy study with mice with subcutaneous S180 sarcoma; format: in vivo, Kunming mice
Description: In this experiment the effects of photodynamic therapy mediated by three different photosensitizers, namely Duteroporphyrin, chlorin e4 sodium and 5-ALA, on mouse S180 sarcoma were observed. Duteroporphyrin and 5-ALA are porphyrin derivatives.
40 Kunming mice with well grown subcutaneous S180 sarcoma were randomly divided into four groups: (A) Duteroporphyrin group (10 mg/kg), (B) chlorin e4 sodium group (20 mg/kg), (C) 5-ALA group (100 mg/kg) and (D) blank control group. The mice in groups A and B were subjected to irradiation 8-10 hours after tail vein injection of the photo sensitizers, while the mice in group C were subjected to irradiation 3 hours after tail vein injection of the photosensitizer. A laser with a wavelength of 630 nm was used for groups A and C, while a duel-frequency laser with wavelengths of 660 nm and 760 nm was used for group B. The local tumour sites were irradiated vertically, with the diameter of the laser spots being 1.2-1.5 cm. The whole tumour and 3-5 mm of normal tissue around the tumour were covered by the laser. The lasers were applied to groups A, B and C for 20 minutes, with a power density of 150 mW/cm^2 and an energy density of 180 J/cm^2. The mice in control group D were not subjected to irradiation.

[5] = 21 days after the treatments, P<0.05

SMILES: C=Cc1c(C)c2cc3nc(c(C)c4[nH]c(cc5nc(cc1[nH]2)C(C)=C5CC)c(C)c4C(=O)O)[C@@H](CCC(=O)O)[C@@H]3C [chlorin e4 sodium]
- Quantum yield of singlet oxygen generation [1]: 0.68±0.05
- Response (ultrasound images and biopsies) ([2]; after the final (fourth) treatment course): complete response
- Biopsy of the treated lymph node of the neck ([2]; immediately following three courses, confirmed ten months after treatment): no cancer cells were detected
- Comparison of CT scans ([2]; one month before and ten months after treatment): no spread of tumours and that the size of the tumours was reduced
- Patient status ([2]; two years and six months after starting, five months after completion of treatment): alive and well
- CT scan finding (lung cancer): tumour breakdown
- Response (PET/CT) ([3]; five courses, interstitial light on left lung): very good treatment response
- Patient status ([3]; one year and five months after starting, two months after completion of treatment): alive and well
- Patient status ([4]; 10 months after starting, four months after completion of treatment): alive and well
- Response (PET/CT) ([4]; five courses, interstitial light on sacrum bone, mesothelium bone growth therapy for last two courses): complete response
- Pathological changes of tumour tissues (HE staining) (S180 sarcoma; 24 hours after the treatment): a wide range of tumour necrosis, tumour vascular disruption and neutrophil infiltration
- Living tumour cells versus control group D (FCM) (S180 sarcoma; 24 hours after treatments): obviously fewer
- Proportions of apoptotic and necrotic tumour cells versus control group D (FCM) (S180 sarcoma; 24 hours after treatments): a lot higher
- Mean tumour volume versus control group D (S180 sarcoma; [5]): statistically significantly smaller
- Mean tumour volume, group B versus group C (5-ALA) (S180 sarcoma; [5]): statistically significantly smaller in group B than group C
- Tumour appearance after treatment (eschars) (S180 sarcoma; after treatments): Black eschars
- Recovery of skins and fur (S180 sarcoma; mouse, in vivo): fully recovered
- Sizes of tumours versus control group D (S180 sarcoma; six days after the treatments): no obvious difference
- Therapeutic effect compared with 5-ALA (S180 sarcoma; summary of study, P<0.05): statistically significantly better therapeutic effect
- Tumour inhibition rate (S180 sarcoma; tail vein: Duteroporphyrin 10 mg/kg, chlorin e4 sodium 20 mg/kg, 5-ALA 100 mg/kg, laser 20 minutes, 180 J/cm^2): 75.4%
